Activity calls are given as the source filed them. The calls are words filed in the database; no cut-off is given here.
Tests used:
HGC-27 [1] = assay: Induction of autophagy in human HGC-27 cells assessed as upregulation of LC3 II protein level at 0.5 to 2 uM incubated for 48 hrs by Western blotting analysis; format: functional, cell-based; settings: dose 0.5-2 µM
AGS [2] = assay: Induction of cell cycle arrest in human AGS cells assessed as increase in P21 expression at 0.5 to 2 uM by Western blotting analysis; format: functional, cell-based; settings: dose 0.5-2 µM
AGS [3] = assay: Induction of apoptosis in human AGS cells assessed as viable cells at 0.5 uM incubated for 48 hrs by annexin V-FITC and PI staining based flow cytometry analysis (reference value: 92.0%); format: functional; settings: read-out: Activity
HGC-27 [4] = assay: Upregulation of BECN1 mRNA expression in human HGC-27 cells at 2 uM incubated for 24 hrs; format: functional, cell-based
HGC-27 [5] = assay: Induction of autophagy in human HGC-27 cells assessed as decrease in P62 protein level in tumor tissue at 25 to 100 mg/kg, ip administered daily; format: functional, organism-based; settings: dose 25-100 mg/kg
AGS [6] = assay: Induction of apoptosis in human AGS cells assessed as early apoptotic cells at 2 uM incubated for 48 hrs by annexin V-FITC and PI staining based flow cytometry analysis (reference value: 4.44%); format: functional
HGC-27 [7] = assay: Induction of apoptosis in human HGC-27 cells assessed as early apoptotic cells at 1 uM incubated for 48 hrs by annexin V-FITC and PI staining based flow cytometry analysis (reference value: 3.13%); format: functional
HGC-27 [8] = assay: Induction of apoptosis in human HGC-27 cells assessed as viable cells at 2 uM incubated for 48 hrs by annexin V-FITC and PI staining based flow cytometry analysis (reference value: 91.8%); format: functional; settings: read-out: Activity
HGC-27 [9] = assay: Upregulation of MAP1LC3B2 mRNA expression in human HGC-27 cells at 2 uM incubated for 24 hrs; format: functional, cell-based
AGS [10] = assay: Downregulation of SRSF1 mRNA expression in human AGS cells incubated for 24 hrs by SYBR green dye based RT-qPCR analysis; format: functional, cell-based; settings: dose 0.5-2 µM
HGC-27 [11] = assay: Downregulation of Bcl-xl protein level in human HGC-27 cells at 0.5 to 2 uM by Western blotting analysis; format: functional, cell-based; settings: dose 0.5-2 µM
AGS [12] = assay: Downregulation of Bcl-xl expression in human AGS cells at 0.5 to 2 uM incubated overnight by Western blotting analysis; format: functional, cell-based; settings: dose 0.5-2 µM
HGC-27 [13] = assay: Antiproliferative activity against human HGC-27 cells assessed as inhibition of cell proliferation incubated for 72 hrs by MTT assay; format: functional, cell-based; settings: HGC-27, 72 h
HGC-27 [14] = assay: Induction of apoptosis in human HGC-27 cells assessed as late apoptotic cells at 0.5 uM incubated for 48 hrs by annexin V-FITC and PI staining based flow cytometry analysis (reference value: 5.02%); format: functional
AGS [15] = assay: Induction of apoptosis in human AGS cells assessed as late apoptotic cells at 0.5 uM incubated for 48 hrs by annexin V-FITC and PI staining based flow cytometry analysis (reference value: 3.15%); format: functional
HGC-27 [16] = assay: Induction of cell cycle arrest in human HGC-27 cells assessed as increase in P21 expression at 0.5 to 2 uM by Western blotting analysis; format: functional, cell-based; settings: dose 0.5-2 µM
HGC-27 [17] = assay: Induction of autophagy in human HGC-27 cells assessed as upregulation of Beclin1 protein level at 0.5 to 2 uM incubated for 48 hrs by Western blotting analysis; format: functional, cell-based; settings: dose 0.5-2 µM
HGC-27 [18] = assay: Downregulation of SRSF1 mRNA expression in human HGC-27 cells incubated for 24 hrs by SYBR green dye based RT-qPCR analysis; format: functional, cell-based; settings: dose 0.5-2 µM
HGC-27 [19] = assay: Induction of apoptosis in human HGC-27 cells assessed as early apoptotic cells at 2 uM incubated for 48 hrs by annexin V-FITC and PI staining based flow cytometry analysis (reference value: 3.13%); format: functional
SGC-7901 = assay: Antiproliferative activity against human SGC-7901 cells assessed as inhibition of cell proliferation incubated for 72 hrs by MTT assay; format: functional, cell-based; settings: SGC-7901, 72 h
[20] = Toxicity in male ICR mouse assessed as animal death at 1 g/Kg, ip measured after 7 days; format: organism-based; settings: in vivo, 1000 mg/kg, 168 h, time 7 day
HGC-27 [21] = assay: Antitumor activity against human HGC-27 cells xenografted in male BALB/c nude mouse assessed as tumor growth inhibition at 100 mg/kg, ip administered every day for 15 days relative to control; format: functional; settings: HGC-27, 360 h, time 15 day, read-out: TGI
B16-F10 = assay: Antiproliferative activity against mouse B16-F10 cells assessed as inhibition of cell proliferation incubated for 72 hrs by MTT assay; format: functional, cell-based; settings: B16-F10, 72 h
A549 = assay: Antiproliferative activity against human A549 cells assessed as inhibition of cell proliferation incubated for 72 hrs by MTT assay; format: functional, cell-based; settings: A549, 72 h
HGC-27 [22] = assay: Antitumor activity against human HGC-27 cells xenografted in male BALB/c nude mouse assessed as tumor growth suppression administered intraperitoneally every day for 15 days; format: functional, cell-based; settings: dose 25-100 mg/kg, route ip, time 15.0 day
HGC-27 [23] = assay: Induction of apoptosis in human HGC-27 cells assessed as early apoptotic cells at 0.5 uM incubated for 48 hrs by annexin V-FITC and PI staining based flow cytometry analysis (reference value: 3.13%); format: functional
HGC-27 [24] = assay: Induction of autophagy in human HGC-27 cells assessed as increase in green fluorescent number co-treated with chloroquine at 2 uM incubated for 48 hrs by DAPI staining based immunofluorescence analysis; format: functional, cell-based
HepG2 = assay: Antiproliferative activity against human HepG2 cells assessed as inhibition of cell proliferation incubated for 72 hrs by MTT assay; format: functional, cell-based; settings: HepG2, 72 h
HGC-27 [25] = assay: Downregulation of SRSF1 mRNA expression in human HGC-27 cells at 2 uM incubated for 24 hrs; format: functional, cell-based
AGS [26] = assay: Induction of cell cycle arrest in human AGS cells assessed as reduction in CyclinE2 expression at 0.5 to 2 uM by Western blotting analysis; format: functional, cell-based; settings: dose 0.5-2 µM
HGC-27 [27] = assay: Induction of autophagy in human HGC-27 cells assessed as upregulation of LC3 I protein level at 0.5 to 2 uM incubated for 48 hrs by Western blotting analysis; format: functional, cell-based; settings: dose 0.5-2 µM
HGC-27 [28] = assay: Induction of apoptosis in human HGC-27 cells assessed as increase in cleaved PARP expression at 0.5 to 2 uM incubated overnight by Western blotting analysis; format: functional, cell-based; settings: dose 0.5-2 µM
AGS [29] = assay: Induction of apoptosis in human AGS cells assessed as viable cells at 1 uM incubated for 48 hrs by annexin V-FITC and PI staining based flow cytometry analysis (reference value: 92.0%); format: functional; settings: read-out: Activity
[30] = Acute toxicity in male ICR mouse assessed as lethal dose administered as ip; settings: in vivo
AGS [31] = assay: Induction of cell cycle arrest in human AGS cells assessed as increase in S phase ratio at 0.5 to 2 uM incubated for 24 hrs by staining based flow cytometric analysis ( Rvb = 32.86%); format: functional; settings: dose 0.5-2 µM
[32] = Selectivity index, ratio of IC50 for antiproliferative activity against human LO2 cells to IC50 for antiproliferative activity against human AGS cells; format: cell-based; settings: LO2 cells and AGS cells, read-out: Ratio IC50
HGC-27 [33] = assay: Downregulation of SRSF1 protein level in human HGC-27 cells at 0.5 to 2 uM by Western blotting analysis; format: functional, cell-based; settings: dose 0.5-2 µM

For CC(C)[C@]12O[C@H]1[C@@H]1O[C@]13[C@]1(O[C@H]1C[C@H]1C4=C(CC[C@@]13C)C(=S)OC4)[C@@H]2O, which Activity (HGC-27 [1]) is on record?
Its Activity is “Active”.

What about the Activity (AGS [2]) of the same molecule?
Its Activity is “Active”.

And the viability at 0.5 µM (AGS [3])?
The viability at 0.5 µM was 82.3%.

What about the Activity (HGC-27 [4]) of the same molecule?
Its Activity is “Active”.

And the Activity (HGC-27 [5])?
Its Activity is “Active”.

And the Activity (AGS [6])?
The Activity was 31.6%.

And the Activity (HGC-27 [7])?
Its Activity is 6.12%.

And the viability at 2 µM (HGC-27 [8])?
Its viability at 2 µM is 52%.

What about the Activity (HGC-27 [9]) of the same molecule?
The Activity was “Active”.

What about the Activity (AGS [10]) of the same molecule?
Its Activity is “Dose-dependent-effect”.

What about the Activity (HGC-27 [11]) of the same molecule?
The Activity was “Active”.

And the Activity (AGS [12])?
Its Activity is “Active”.

What about the IC50 (HGC-27 [13]) of the same molecule?
The IC50 was 330 nM.

And the Activity (HGC-27 [14])?
Its Activity is 10.5%.

What about the Activity (AGS [15]) of the same molecule?
Its Activity is 7.89%.

What about the Activity (HGC-27 [16]) of the same molecule?
The Activity was “Active”.

And the Activity (HGC-27 [17])?
The Activity was “Active”.

What about the Activity (HGC-27 [18]) of the same molecule?
The Activity was “Dose-dependent-effect”.

What about the Activity (HGC-27 [19]) of the same molecule?
Its Activity is 28.1%.

What about the IC50 (SGC-7901) of the same molecule?
The IC50 was 1800 nM.

And the Activity [20]?
Its Activity is “Non-toxic”.

And the inhibition in vivo at 100 mg/kg (HGC-27 [21])?
The inhibition in vivo at 100 mg/kg was 82.7%.

And the IC50 (B16-F10)?
The IC50 was 330 nM.

And the IC50 (A549)?
Its IC50 is 6930 nM.

What about the Activity (HGC-27 [22]) of the same molecule?
Its Activity is “Dose-dependent-effect”.

And the Activity (HGC-27 [23])?
The Activity was 3.5%.

What about the Activity (HGC-27 [24]) of the same molecule?
The Activity was “Active”.

What about the IC50 (HepG2) of the same molecule?
Its IC50 is 350 nM.

And the Activity (HGC-27 [25])?
The Activity was “Active”.

What about the Activity (AGS [26]) of the same molecule?
The Activity was “Active”.

And the Activity (HGC-27 [27])?
The Activity was “Active”.

And the Activity (HGC-27 [28])?
Its Activity is “Active”.

And the viability at 1 µM (AGS [29])?
The viability at 1 µM was 65.1%.

And the LD50 [30]?
Its LD50 is over 1000 mg/kg.

What about the Activity (AGS [31]) of the same molecule?
Its Activity is 52.16%.

And the selectivity ratio [32]?
The selectivity ratio was 4.55.

What about the Activity (HGC-27 [33]) of the same molecule?
Its Activity is “Active”.
